Data from patent US20170266218A1, “NAD+ COENZYME FORMULATION AND METHODS OF MAKING AND USING THE SAME” (Steve McNerlin, priority 2016, published 2017).

Experiments:
[1] = Applicant's finding on therapeutic activity of NAD+ versus NADH for the disclosed uses
Source text: As such, Applicant believes NAD+ alone is responsible for the activities disclosed herein. […] Applicant therefore defines NADH as having a negative net NAD+ value.

[2] = cited from earlier work
[3] = test system: hair growth (follicular stimulation; SIRT1 enzyme); assay: Database trial: weekly scalp micro injections of SIRT1 activator (NAD+), hair growth followed by trichoscan; format: in vivo, human
Description: All six patients underwent weekly micro injections to the subcutaneous fatty layer of the affected layer of the scalp using 4 ml of a SIRT1 Activator (NAD+) over a 24 week period using a commercially available Biophymed CE certified U225 mesotherapy device. The SIRT 1 activator was specially prepared from our written protocol.
Patients were followed for safety and tolerability as well as for monitoring differences in hair growth. In order to track progress over time, we employed global photography, and a 60 second patient observational assessment tool based on a standardized 60 second hair count protocol, haircount and trichoscan analysis (Fotofinder); Trichoscan analysis allows us to quantitatively track the following parameters: hair count, hair density, anagen/telogen rates, along with cumulative hair thickness Patients were asked to return to the clinic at 6 weeks, 12 weeks after the intervention.

Compound	therapeutic effectiveness for the uses disclosed [1]	stability of solutions ([2]; 4° C. and neutral pH)	stability of solutions in acids or alkalis ([2]; acids or alkalis)	average increase in hair count ([3]; 12 week trichoscan parameters, six patients, weekly micro injections of 4 ml to subcutaneous fatty layer of scalp) [%]	preliminary results of hair growth trial ([3]; overall conclusion of the trial)
NC(=O)c1ccc[n+]([C@@H]2O[C@H](COP(=O)([O-])OP(=O)(O)OC[C@H]3O[C@@H](n4cnc5c(N)ncnc54)[C@H](O)[C@@H]3O)[C@@H](O)[C@H]2O)c1 [NAD+, Nicotinamide adenine dinucleotide]	therapeutically effective	stable for about a week	decompose rapidly	21	statistically significant and positive
NC(=O)C1=CN([C@@H]2O[C@H](COP(=O)(O)OP(=O)(O)OC[C@H]3O[C@@H](n4cnc5c(N)ncnc54)[C@H](O)[C@@H]3O)[C@@H](O)[C@H]2O)C=CC1 [NADH, reference compound]	entirely inactive				
